Source: patent publication US20100267561A1, “HERBICIDAL PYRIDAZINONE DERIVATIVES” (priority 2007, published 2010)

Legend:
Experiment in all cases: Test B pre-/postemergence plant response
Format in all cases: in vivo
[1] = system: Russian thistle (Salsola iberica); details: Preemergence
Outline: (§1)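 Seeds were sown and sprayed preemergence, while plants at 2 to 18 cm (1- to 4-leaf stage) got postemergence sprays. Compounds were formulated in a non-phytotoxic solvent mixture with surfactant. After 13 to 15 days in a greenhouse, injury was rated visually against untreated controls, 0 (no effect) to 100 (complete control).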

[2] = system: blackgrass (Alopecurus myosuroides); details: for Blackgrass plant response rating: 8 g ai/ha
Outline: as §1

[3] = system: catchweed bedstraw (Galium aparine); details: Preemergence
Outline: as §1

[4] = system: cocklebur (Xanthium strumarium); details: for Cocklebur plant response rating: 8 g ai/ha
Outline: as §1

[5] = system: common ragweed (Ambrosia elation); details: for Ragweed plant response rating: 8 g ai/ha
Outline: as §1

corn (Zea mays) = details: for Corn plant response rating: 8 g ai/ha
Outline: as §1

[6] = system: goosegrass (Eleusine indica); details: for Goosegrass plant response rating: 8 g ai/ha
Outline: as §1

[7] = system: johnsongrass (Sorghum halepense); details: for Johnsongrass plant response rating: 8 g ai/ha
Outline: as §1

kochia (Kochia scoparia) = details: for Kochia plant response rating: 8 g ai/ha
Outline: as §1

[8] = system: large crabgrass (Digitaria sanguinalis); details: for Crabgrass, Large plant response rating: 8 g ai/ha
Outline: as §1

[9] = system: velvetleaf (Abutilon theophrasti); details: for Velvetleaf plant response rating: 8 g ai/ha
Outline: as §1

wild oat (Avena fatua) = details: for Oat, Wild plant response rating: 8 g ai/ha
Outline: as §1

[10] = system: woolly cupgrass (Eriochloa villosa); details: for Cupgrass, Woolly plant response rating: 8 g ai/ha
Outline: as §1

[11] = system: yellow nutsedge (Cyperus esculentus); details: for Nutsedge, Yellow plant response rating: 8 g ai/ha
Outline: as §1

[12] = 16 g ai/ha, scale 0 to 100 (0 no effect, 100 complete control)
[13] = 31 g ai/ha, 0 to 100 scale, 0 no effect, 100 complete control
[14] = Postemergence, 16 g ai/ha, scale 0 to 100
[15] = Postemergence, 31 g ai/ha, scale 0 to 100, 0 no effect, 100 complete control
[16] = Postemergence, 62 g ai/ha, scale 0 to 100, 0 no effect, 100 complete control
[17] = Preemergence, 16 g ai/ha, scale 0 to 100 (0 no effect, 100 complete control)
[18] = Preemergence, 31 g ai/ha, 0 to 100 scale, 0 no effect, 100 complete control
[19] = Preemergence, 62 g ai/ha, scale 0 to 100

SMILES: CCc1cc(-c2ccc(Cl)cc2)nn1-c1c(OS(C)(=O)=O)cnn(C)c1=O [Compound 39]
- Plant response rating, Russian Thistle [1, 12]: 0
- Plant response rating, Russian Thistle [1, 13]: 0
- Plant response rating, Russian Thistle ([1]; 62 g ai/ha, scale 0 to 100): 0
- Russian Thistle plant response rating ([1]; 8 g ai/ha, scale 0 to 100): 0
- Blackgrass plant response rating ([2]; postemergence, 0-100 scale): 0
- Plant response rating, Blackgrass [2, 14]: 0
- Plant response rating, Blackgrass [2, 15]: 95
- Plant response rating, Blackgrass [2, 16]: 100
- Plant response rating, Blackgrass [2, 17]: 90
- Plant response rating, Blackgrass [2, 18]: 90
- Plant response rating, Blackgrass [2, 19]: 90
- Blackgrass plant response rating ([2]; Preemergence, scale 0 to 100): 40
- Plant response rating, Galium [3, 12]: 0
- Plant response rating, Galium [3, 13]: 0
- Plant response rating, Galium ([3]; 62 g ai/ha, scale 0 to 100): 0
- Galium plant response rating ([3]; 8 g ai/ha, scale 0 to 100): 0
- Cocklebur plant response rating ([4]; postemergence, 0-100 scale): 0
- Plant response rating, Cocklebur [4, 14]: 0
- Plant response rating, Cocklebur [4, 15]: 0
- Plant response rating, Cocklebur [4, 16]: 0
- Plant response rating, Cocklebur [4, 17]: 0
- Plant response rating, Cocklebur [4, 18]: 0
- Plant response rating, Cocklebur [4, 19]: 0
- Cocklebur plant response rating ([4]; Preemergence, scale 0 to 100): 0
- Ragweed plant response rating ([5]; postemergence, 0-100 scale): 0
- Plant response rating, Ragweed [5, 14]: 0
- Plant response rating, Ragweed [5, 15]: 0
- Plant response rating, Ragweed [5, 16]: 0
- Plant response rating, Ragweed [5, 17]: 0
- Plant response rating, Ragweed [5, 18]: 0
- Plant response rating, Ragweed [5, 19]: 0
- Ragweed plant response rating ([5]; Preemergence, scale 0 to 100): 0
- Corn plant response rating (corn (Zea mays); postemergence, 0-100 scale): 0
- Plant response rating, Corn (corn (Zea mays); [14]): 85
- Plant response rating, Corn (corn (Zea mays); [15]): 98
- Plant response rating, Corn (corn (Zea mays); [16]): 100
- Plant response rating, Corn (corn (Zea mays); [17]): 80
- Plant response rating, Corn (corn (Zea mays); [18]): 98
- Plant response rating, Corn (corn (Zea mays); [19]): 100
- Corn plant response rating (corn (Zea mays); Preemergence, scale 0 to 100): 65
- Goosegrass plant response rating ([6]; postemergence, 0-100 scale): 20
- Plant response rating, Goosegrass [6, 14]: 65
- Plant response rating, Goosegrass [6, 15]: 85
- Plant response rating, Goosegrass [6, 16]: 100
- Plant response rating, Goosegrass [6, 17]: 100
- Plant response rating, Goosegrass [6, 18]: 100
- Plant response rating, Goosegrass [6, 19]: 100
- Goosegrass plant response rating ([6]; Preemergence, scale 0 to 100): 95
- Johnsongrass plant response rating ([7]; postemergence, 0-100 scale): 40
- Plant response rating, Johnsongrass [7, 14]: 55
- Plant response rating, Johnsongrass [7, 15]: 95
- Plant response rating, Johnsongrass [7, 16]: 95
- Plant response rating, Johnsongrass [7, 17]: 90
- Plant response rating, Johnsongrass [7, 18]: 90
- Plant response rating, Johnsongrass [7, 19]: 95
- Johnsongrass plant response rating ([7]; Preemergence, scale 0 to 100): 75
- Kochia plant response rating (kochia (Kochia scoparia); postemergence, 0-100 scale): 0
- Plant response rating, Kochia (kochia (Kochia scoparia); [14]): 0
- Plant response rating, Kochia (kochia (Kochia scoparia); [15]): 0
- Plant response rating, Kochia (kochia (Kochia scoparia); [16]): 0
- Plant response rating, Kochia (kochia (Kochia scoparia); [17]): 0
- Plant response rating, Kochia (kochia (Kochia scoparia); [18]): 0
- Plant response rating, Kochia (kochia (Kochia scoparia); [19]): 0
- Kochia plant response rating (kochia (Kochia scoparia); Preemergence, scale 0 to 100): 0
- Crabgrass, Large plant response rating ([8]; postemergence, 0-100 scale): 70
- Plant response rating, Crabgrass, Large [8, 14]: 90
- Plant response rating, Crabgrass, Large [8, 15]: 98
- Plant response rating, Crabgrass, Large [8, 16]: 100
- Plant response rating, Crabgrass, Large [8, 17]: 100
- Plant response rating, Crabgrass, Large [8, 18]: 100
- Plant response rating, Crabgrass, Large [8, 19]: 100
- Crabgrass, Large plant response rating ([8]; Preemergence, scale 0 to 100): 60
- Velvetleaf plant response rating ([9]; postemergence, 0-100 scale): 0
- Plant response rating, Velvetleaf [9, 14]: 0
- Plant response rating, Velvetleaf [9, 16]: 0
- Plant response rating, Velvetleaf [9, 17]: 0
- Plant response rating, Velvetleaf [9, 18]: 0
- Plant response rating, Velvetleaf [9, 19]: 0
- Velvetleaf plant response rating ([9]; Preemergence, scale 0 to 100): 0
- Oat, Wild plant response rating (wild oat (Avena fatua); postemergence, 0-100 scale): 95
- Plant response rating, Oat, Wild (wild oat (Avena fatua); [14]): 95
- Plant response rating, Oat, Wild (wild oat (Avena fatua); [15]): 100
- Plant response rating, Oat, Wild (wild oat (Avena fatua); [16]): 100
- Plant response rating, Oat, Wild (wild oat (Avena fatua); [17]): 90
- Plant response rating, Oat, Wild (wild oat (Avena fatua); [18]): 90
- Plant response rating, Oat, Wild (wild oat (Avena fatua); [19]): 95
- Oat, Wild plant response rating (wild oat (Avena fatua); Preemergence, scale 0 to 100): 70
- Cupgrass, Woolly plant response rating ([10]; postemergence, 0-100 scale): 80
- Plant response rating, Cupgrass, Woolly [10, 14]: 95
- Plant response rating, Cupgrass, Woolly [10, 15]: 100
- Plant response rating, Cupgrass, Woolly [10, 16]: 100
- Plant response rating, Cupgrass, Woolly [10, 17]: 65
- Plant response rating, Cupgrass, Woolly [10, 18]: 95
- Plant response rating, Cupgrass, Woolly [10, 19]: 98
- Cupgrass, Woolly plant response rating ([10]; Preemergence, scale 0 to 100): 20
- Nutsedge, Yellow plant response rating ([11]; postemergence, 0-100 scale): 0
- Plant response rating, Nutsedge, Yellow [11, 14]: 0
- Plant response rating, Nutsedge, Yellow [11, 15]: 0
- Plant response rating, Nutsedge, Yellow [11, 16]: 0
- Plant response rating, Nutsedge, Yellow [11, 17]: 0
- Plant response rating, Nutsedge, Yellow [11, 18]: 0
- Plant response rating, Nutsedge, Yellow [11, 19]: 0
- Nutsedge, Yellow plant response rating ([11]; Preemergence, scale 0 to 100): 0
